Consider 14 molecules from patent US10087242B2 (INSTITUT PASTEUR, priority 2007, dated 2018).

Type in all cases: binding, mouse
Assay [1] has as its system mIgG C7-37. Put plainly: inhibition ELISA: oligosaccharide inhibits fixation of mIgG C7-37 on LPS 3a. As to conditions: concentration of oligosaccharide giving 50% inhibition of fixation of the mAb on LPS 3a (S. flexneri 3a). Here is the method: (§1) The oligosaccharide determinants recognized by the four mAbs obtained were characterized by measuring, by inhibition ELISA, the interaction of the various oligosaccharides synthesized with these mAbs.
(§2) 1) First, a standard curve OD=f(concentration of the mAb) was established for each antibody.
(§3) For this, purified LPS from S. flexneri 3a was fixed in the wells of ELISA plates (96-well plate), at a concentration of 25 μg/ml in a carbonate buffer pH 9.6, at 4° C., overnight.
(§4) After washing the wells with a solution of PBS/ Tween 20 (0.05%) 1% and a stage of saturation with PBS/BSA 1% for 30 minutes at 4° C., various concentrations of each mAb were incubated for 30 minutes at 4° C. After a washing stage, a secondary antibody coupled to alkaline phosphatase and specific to the mouse IgGs or IgMs was added at a dilution of 1/5000 (Sigma-Aldrich) for 1 h at 37° C. After washing, the enzymatic reaction was carried out with the specific substrate of alkaline phosphatase (12 mg of p-nitrophenylphosphate in 1.2 ml of Tris-HCl buffer 1M (pH 8.8) and 10.8 ml of 5M NaCl). Once the color reaction had developed, the plates were read at 405 nm (Dynatech MR 4000 plate reader). The standard curve OD =f(Ab concentration) was refined with the equation Y=aX2+bX+c, where Y corresponds to the OD and X to the antibody concentration. A correlation factor (r2) of 0.99 was generally obtained.
(§5) 2) The concentration of oligosaccharide capable of inhibiting 50% of the fixation of the mAb on LPS 3a was then determined as follows.
(§6) Each mAb was used at a given concentration, defined as the first concentration tested giving a maximum OD on the standard curve (the first point at the start of the plateau of the curve). Various concentrations of each of the oligosaccharides to be tested were then incubated separately with the mAb at constant concentration, overnight at 4° C., in 1% PBS-BSA buffer. Measurement of the free antibody concentration was carried out as stated above, after incubation of the mAb/oligosaccharide mixtures at 4° C. for 30 minutes on plates covered with LPS 3a and using the standard curve obtained in parallel on the same plate. For each mAb and each oligosaccharide, a value called IC50 was then calculated, corresponding to the concentration of oligosaccharide permitting 50% inhibition of the fixation of the mAb on LPS 3a.
(In an ELISA, binding on a coated surface is turned into a signal by an enzyme label.)

Assay [2] deals with IgM (G 19-2). Description: inhibition ELISA: oligosaccharide inhibits fixation of IgM G19-2 on LPS 3a. As to conditions: for IC50: concentration of oligosaccharide giving 50% inhibition of fixation of the mAb on LPS 3a (S. flexneri 3a), inhibition ELISA; for recognition by the mIgM antibody (and by the mIgGs): summary in words of tables 1 and 2, interaction weaker than with the mIgGs. Here is the method: Protocol 2) Ten Balb/C mice and four BP2 mice were immunized by i.p. injection with virulent live bacteria of the strain S. flexneri 3a, every three weeks, using 2×10^6 bacteria for the first 2 immunizations and 5×10^6 for the next 4. As the anti-LPS 3a antibody response was too weak for performing cellular fusion, an additional series of 4 injections was carried out. Two mAbs of type IgM, G19-2 and L18-9, were obtained.
as §1, §2, §3, §4, §5, §6

The subject of assay [3] is mIgG G7-12. Put plainly: inhibition ELISA: oligosaccharide inhibits fixation of mIgG G7-12 on LPS 3a. Conditions: concentration of oligosaccharide giving 50% inhibition of fixation of the mAb on LPS 3a (S. flexneri 3a). Here is the method:
as §1, §2, §3, §4, §5, §6

What is called IC50 is the midpoint of a concentration-inhibition curve. The low end stands for higher potency, the high end for lower potency. Turning to `CCCO[C@@H]1OC(C)[C@H](O)[C@H](O[C@H]2O[C@@H](CO)[C@@H](O)C(O)C2O)C1O[C@@H]1OC(CO)[C@@H](O)C(O)[C@@H]1NC(C)=O` (stereo partly drawn), the IC50 in assay [1] is greater than 5 mM; in assay [2], greater than 2.5 mM; in assay [3], greater than 2.5 mM.

Consider `CCCO[C@@H]1OC(C)[C@H](O)C(O)C1O[C@@H]1OC(C)[C@H](O)C(O[C@H]2OC(CO)[C@@H](O)C(O)C2O)C1O[C@@H]1OC(CO)[C@@H](O)C(O[C@@H]2OC(C)[C@H](O)C(O[C@@H]3OC(C)[C@H](O)C(O)C3O)C2OC(C)=O)C1NC(C)=O` (stereo partly drawn) [BC(2-OAc)D(E)AB-OPr, Propyl α-L-rhamnopyranosyl-(1→3)-(2-O-acetyl-α-L-rhamnopyranosyl)-(1→3)-(2-acetamido-2-deoxy-β-D-glucopyranosyl)-(1→2)-[α-D-glucopyranosyl-(1→3)]-α-L-rhamnopyranosyl-(1→2)-α-L-rhamnopyranoside], for which the IC50 in assay [1] was determined as 0.23 mM; in assay [2], 2.2 mM; in assay [3], 0.205 mM. The “recognition by the mIgM antibody (and by the mIgGs)” value (“recognition by the mIgM antibody” below) in assay [2] was “recognized”.

On to `CCCO[C@@H]1OC(C)[C@H](O)C(O[C@H]2OC(CO)[C@@H](O)C(O)C2O)C1O[C@@H]1OC(CO)[C@@H](O)C(O[C@@H]2OC(C)[C@H](O)C(O[C@@H]3OC(C)[C@H](O)C(O)C3O)C2O)C1NC(C)=O` (stereo partly drawn) [BCDEA-Opr, Propyl α-L-rhamnopyranosyl-(1→3)-α-L-rhamnopyranosyl-(1→3)-(2-acetamido-2-deoxy-β-D-glucopyranosyl)-(1→2)-[α-D-glucopyranosyl-(1→3)]-α-L-rhamnopyranoside], for which the values for the 50% inhibitory concentration (IC50) in assay [1], in assay [2] and in assay [3] were greater than 1 mM, greater than 2.5 mM and greater than 2.5 mM, respectively.

In the case of `CCCO[C@@H]1OC(C)[C@H](O)C(O[C@H]2OC(CO)[C@@H](O)C(O)C2O)C1O[C@@H]1OC(CO)[C@@H](O)C(O[C@@H]2OC(C)[C@H](O)C(O[C@@H]3OC(C)[C@H](O)C(O)C3O)C2OC(C)=O)C1NC(C)=O` (stereo partly drawn) [BCDEA-Opr-Oac, Propyl α-L-rhamnopyranosyl-(1→3)-(2-O-acetyl-α-L-rhamnopyranosyl)-(1→3)-(2-acetamido-2-deoxy-β-D-glucopyranosyl)-(1→2)-[α-D-glucopyranosyl-(1→3)]-α-L-rhamnopyranoside], the figures for the IC50 in assay [1], in assay [2] and in assay [3] were 0.195 mM, 1.98 mM and 0.175 mM, respectively. In assay [2], the “recognition by the mIgM antibody” value is reported as “recognized”.

As for `CCCO[C@@H]1OC(C)[C@H](O)C(O)C1O[C@@H]1OC(C)[C@H](O)C(O[C@H]2OC(CO)[C@@H](O)C(O)C2O)C1O[C@@H]1OC(CO)[C@@H](O)C(O[C@@H]2OC(C)[C@H](O)C(O[C@@H]3OC(C)[C@H](O)C(O)C3O)C2O)C1NC(C)=O` (stereo partly drawn) [BCDEAB-Opr], the IC50 was greater than 5 mM in assay [1], greater than 2.5 mM in assay [2] and greater than 2.5 mM in assay [3].

On to `CCCO[C@@H]1OC(C)[C@H](O)C(O)C1O[C@@H]1OC(C)[C@H](O)C(O[C@H]2OC(CO)[C@@H](O)C(O)C2O)C1O[C@@H]1OC(CO)[C@@H](O)C(O[C@@H]2OC(C)[C@H](O)C(O)C2OC(C)=O)C1NC(C)=O` (stereo partly drawn) [C(2,3-OAc)D(E)AB-OPr, Propyl (2-O-acetyl-α-L-rhamnopyranosyl)-(1→3)-(2-acetamido-2-deoxy-β-D-glucopyranosyl)-(1→2)-[α-D-glucopyranosyl-(1→3)]-α-L-rhamnopyranosyl-(1→2)-α-L-rhamnoyranoside], for which the values for the IC50 in assay [1], in assay [2] and in assay [3] were greater than 5 mM, greater than 2.5 mM and greater than 2.5 mM, respectively.

Turning to `CCCO[C@@H]1O[C@@H](C)[C@H](O)[C@@H](O)[C@H]1O[C@@H]1O[C@@H](C)[C@H](O)[C@@H](O[C@H]2O[C@H](CO)[C@@H](O)[C@H](O)[C@H]2O)[C@H]1O[C@@H]1O[C@H](CO)[C@@H](O)[C@H](O)[C@H]1NC(C)=O` [DEAB-OPr, Propyl 2-acetamido-2-deoxy-β-D-glucopyranosyl-(1→2)-[α-D-glucopyranosyl-(1→3)]-α-L-rhamnopyranosyl-(1→2)-α-L-rhamnopyranoside], the IC50 was greater than 5 mM in assay [1], greater than 2.5 mM in assay [2] and greater than 2.5 mM in assay [3].

On to `CCCO[C@@H]1O[C@@H](C)[C@H](O)[C@@H](O[C@@H]2O[C@@H](C)[C@H](O)[C@@H](O)[C@H]2O[C@@H]2O[C@@H](C)[C@H](O)[C@@H](O[C@H]3O[C@H](CO)[C@@H](O)[C@H](O)[C@H]3O)[C@H]2O[C@@H]2O[C@H](CO)[C@@H](O)[C@H](O)[C@H]2NC(C)=O)[C@H]1OC(C)=O` [DEABC(2-OAc)-OPr, Propyl (2-acetamido-2-deoxy-β-D-glucopyranosyl)-(1→2)-[α-D-glucopyranosyl-(1→3)]-α-L-rhamnopyranosyl-(1→2)-α-L-rhamnopyranosyl-(1→3)-2-O-acetyl-α-rhamnopyranoside], for which the IC50 in assay [2] and in assay [3] was greater than 2.5 mM in each case.

On to `CCCO[C@@H]1O[C@@H](C)[C@H](O)[C@@H](O[C@@H]2O[C@@H](C)[C@H](O)[C@@H](O)[C@H]2O[C@@H]2O[C@@H](C)[C@H](O)[C@@H](O[C@H]3O[C@H](CO)[C@@H](O)[C@H](O)[C@H]3O)[C@H]2O[C@@H]2O[C@H](CO)[C@@H](O)[C@H](O)[C@H]2NC(C)=O)[C@H]1O` [DEABC)-OPr, Propyl (2-acetamido-2-deoxy-β-D-glucopyranosyl)-(1→2)-[α-D-glucopyranosyl-(1→3)]-α-L-rhamnopyranosyl-(1→2)-α-L-rhamnopyranosyl-(1→3)-α-L-rhamnopyranoside], for which the figures for the IC50 in assay [1], in assay [2] and in assay [3] were greater than 5 mM, greater than 2.5 mM and greater than 2.5 mM, respectively.

Take `CCCO[C@@H]1O[C@@H](C)[C@H](O)[C@@H](O[C@H]2O[C@H](CO)[C@@H](O)[C@H](O)[C@H]2O)[C@H]1O` [EA-OPr, Propyl α-D-glucopyranosyl- (1→3)-α-L-rhamnopyranoside]: the half-inhibitory concentration (IC50) is greater than 5 mM in assay [1], greater than 2.5 mM in assay [2] and greater than 2.5 mM in assay [3].

Take `CCCO[C@@H]1O[C@@H](C)[C@H](O)[C@@H](O)[C@H]1O[C@@H]1O[C@@H](C)[C@H](O)[C@@H](O[C@H]2O[C@H](CO)[C@@H](O)[C@H](O)[C@H]2O)[C@H]1O` [EAB-OPr, Propyl α-D-glucopyranosyl-(1→3)-α-L-rhamnopyranosyl-(1→2)-α-L-rhamnopyranoside]: the IC50 in assay [1] is greater than 5 mM; in assay [2], greater than 2.5 mM; in assay [3], greater than 2.5 mM.

In the case of `CCCO[C@@H]1O[C@@H](C)[C@H](O)[C@@H](O[C@@H]2O[C@@H](C)[C@H](O)[C@@H](O)[C@H]2O[C@@H]2O[C@@H](C)[C@H](O)[C@@H](O[C@H]3O[C@H](CO)[C@@H](O)[C@H](O)[C@H]3O)[C@H]2O)[C@H]1OC(C)=O` [EABC(2-OAc)-OPr, Propyl α-D-glucopyranosyl-(1→3)-α-L-rhamnopyranosyl-(1→2)-α-L-rhamnopyranosyl-(1→3)-2-O-acetyl-α-L-rhamnopyranoside], the IC50 in assay [1] was 0.41 mM; in assay [2], 1.43 mM; in assay [3] it was 0.45 mM. In assay [2], the “recognition by the mIgM antibody” value is given as “recognized”.

For `CCCO[C@@H]1OC(CO)[C@@H](O)C(O[C@@H]2OC(C)[C@H](O)C(O[C@@H]3OC(C)[C@H](O)C(O)C3O[C@@H]3OC(C)[C@H](O)C(O[C@H]4OC(CO)[C@@H](O)C(O)C4O)C3O)C2OC(C)=O)C1NC(C)=O` (stereo partly drawn) [EABC(2-OAc)D-OPr, Propyl α-D-glucopyranosyl-(1→3)-α-L-rhamnopyranosyl-(1→2)-α-L-rhamnopyranosyl-(1→3)-(2-O-acetyl-α-L-rhamnopyranosyl)-(1→3)-2-acetamido-2-deoxy-β-D-glucopyranoside], the IC50 in assay [1] was 0.28 mM; in assay [2], 1.28 mM; in assay [3], 0.315 mM. The “recognition by the mIgM antibody” value in assay [2] was “recognized”.

For `CCCO[C@@H]1O[C@@H](C)[C@H](O)[C@@H](O[C@@H]2O[C@@H](C)[C@H](O)[C@@H](O)[C@H]2O[C@@H]2O[C@@H](C)[C@H](O)[C@@H](O[C@H]3O[C@H](CO)[C@@H](O)[C@H](O)[C@H]3O)[C@H]2O)[C@H]1O` [EABC-Opr, Propyl α-D-glucopyranosyl-(1→3)-α-L-rhamnopyranosyl-(1→2)-α-L-rhamnopyranosyl-(1→3)-α-L-rhamnopyranoside], the IC50 was greater than 5 mM in assay [1], greater than 2.5 mM in assay [2] and greater than 2.5 mM in assay [3].
